US10028996B2, “Process for the synchronization of ovulation for timed breeding without heat detection” (priority 2003, dated 2018)

Assays:
Format in all cases: in vivo, swine
[1] = tested on: ovariectomized estrogen primed gilt model; test: Dose response study of deslorelin in SAIB, LH release determined by RIA; conditions: single injection of 50 mcg in SAIB
Procedure: A dose response study was performed using deslorelin in SAIB in an ovariectomized estrogen primed gilt model (Barb, et al. (1999) Proceed. Int'l. Symp. Control. Rel. Bioact. Mater., 26).

mature postpartum sows = test: Deslorelin injected intravulvar at estrus detection in mature postpartum sows, AI breeding; conditions: 50 mcg intravulvar at estrus detection
Procedure: Sows were assigned randomly in blocks of two to either control or to be injected intravulvar with 50 mcg of deslorelin in SAIB at the time of estrus detection for sows first detected in estrus in the a.m. and 12 hours later for those first detected in estrus in the p.m. Treated animals were bred AI upon detected estrus and again 24 hours later if still in estrus. Controls received a saline injection on first detected estrus behavior estrus detection and were bred according to the farm's normal procedures.

postpartum sows [2] = test: Single timed deslorelin injection 96 hours post-weaning, single timed insemination without estrus detection; conditions: 50 mcg in SAIB 96 hours post-weaning, no estrus detection
Procedure: Approximately 170 postpartum sows were randomly divided into two equal groups comprised of controls and treated. Following weaning, the controls were detected for estrus and bred following the normal standard operating procedures for the farms on which they resided. The treated sows received a 50 mcg dose of deslorelin in SAIB at 96 hours post-weaning and were bred with a single insemination 28+/−2 hours later with no regard to estrus detection. The sows were examined for pregnancy by ultrasound at 21 days and slaughtered around 28 days post breeding. The entire reproductive tract was removed and corpora lutea and embryos were counted.

postpartum sows [3] = test: Litter size after deslorelin treatment in postpartum sows at three farm sites; conditions: Tables 3 to 5; regardless of estrus detection
Excerpt: Postpartum sows were randomly distributed into three different groups comprised of Controls, Treatment 1, and Treatment 2, with the exception of Site 3, which was divided into two groups, Control and Treatment 2. Control sows were detected for estrus following weaning, and bred following the normal standard operating procedures for the farms on which they resided. Treatment 1 sows were detected for estrus following weaning, and received a 50 mcg dose of deslorelin in the morning when standing and were bred by AI 4 hours later and again at 24+/−2 hours later. Treatment 2 sows received a 50 mcg dose of deslorelin in SAIB at 96 or 120 hours post-weaning and were bred with a single insemination 28+/−2 hours later with no regard to estrus detection.

CCNC(=O)[C@@H]1CCCN1C(=O)[C@H](CCCN=C(N)N)NC(=O)[C@H](CC(C)C)NC(=O)[C@@H](Cc1c[nH]c2ccccc12)NC(=O)[C@H](Cc1ccc(O)cc1)NC(=O)[C@H](CO)NC(=O)[C@H](Cc1c[nH]c2ccccc12)NC(=O)[C@H](Cc1cnc[nH]1)NC(=O)[C@@H]1CCC(=O)N1 [Deslorelin, deslorelin]
time at which LH returned to base level [1]: ≤ 18 h | LH peak relative to normal value ([1]; compared to Hansel et al. (1973)): about twice normal value | difference in pregnancy rates, Control versus Treated (mature postpartum sows): no significant difference | Pregnancy Rate (postpartum sows [2]): 71% | litter sizes, in words (postpartum sows [3]): normal litter sizes
